Assays:
[1] = system: RTKs in cell membrane fraction MDA-MB-468; experiment: RTK activity of cell membrane fraction with or without inhibitor (ELISA, Biotin-poly(Glu, Tyr) substrate); type: biochemical; conditions: treatment solution containing 100 μM inhibitor, 100 μM ATP, FIG. 1
Method: (§1) Cultured cells (13 types: A-431, KF, MDA-MB-468, RMUG-L, BT-474, ES2, MDA-MB-453, SK-Br-3, SNG-S, K-562, MDA-MB-231, MCF7 and T47D) were respectively mixed with 1 ml of a homogenizing reagent (containing 20 mM HEPES pH7.4, 0.2% protease inhibitors (PI), 10% glycerol, 200 μM Na3VO4 and 50 mM NaF), pressurized with a pestle to break cell membrane and cell homogenate was obtained. The obtained cell homogenate was centrifuged (20,000×g, 20 min.), the supernatant was discarded and the pellet was collected. The collected pellet was added with a solubilizing solution (containing 20 mM HEPES pH7.4, 1% NP40, 0.2% PI, 10% glycerol, 200 μM Na3VO4 and 50 mM NaF), mixed, pressurized with a pestle to solubilize cell membrane and centrifuged (20,000×g, 20 min.). The supernatant was then collected as the cell membrane fraction, adjusted its total protein amount to 40 μg/ml and used for the following experiments.
(§2) The ELISA plate used was the avidin coated plate (NeutrAvidin HBC White 96-Well Plates With SuperBlock Blocking Buffer; PIERCE). Each well of the plate was washed three times with TBS-T (containing 25 mM Tris, 150 mM NaCl and 0.05% Tween-20). A substrate solution 1 (50 μl; TBS containing 1 μg/ml Biotin-poly(Glu, Tyr) substrate) was added to each well and the plate was incubated with gentle shaking at 25° C. for 1.5 hours. After the incubation, each well was washed three times with TBS-T. Thus, Biotin-poly(Glu, Tyr) substrate was bound to the surface of each well of the ELISA plate. This ELISA plate was used for the following enzyme reaction.
(§3) The cell membrane fractions (25 μl each) of the above tumor cells were placed in seven tubes, respectively. To six tubes were added 25 μl of a treatment solution (20 mM HEPES pH7.4, 20 mM MnCl2, 2 mM DTT, 1% NP40, 10% glycerol, 200 μM Na3VO4, 50 mM NaF, 100 μM ATP, 400 μM PPI (BIOMOL)) containing 100 μM PD153035, 25 μl of treatment solution containing 100 μM AG1478, 25 μl of the treatment solution containing 100 μM 4557W, 25 μl of the treatment solution containing 100 μM Src inhibitor, 25 μl of the treatment solution containing 100 μM PDGFR inhibitor and 25 μl of the treatment solution containing 100 μM VEGFR inhibitor, respectively, to contact the cell membrane fractions with RTK activity inhibitors. To the remained tube was added with 25 μl of the treatment solution without inhibitors. The thus obtained solutions are called as reaction solutions. In order to suppress the enzyme activity of RTKs, the above procedures were carried out at below 4° C.
(§4) Each reaction solution (50 μl was distributed to each well of the ELISA plate prepared as above, and the plate was incubated at 25° C. for about 30 minutes to bring the cell membrane fractions having contacted or not with RTK activity inhibitors into contact with the substrate. After the incubation, each well was added with 100 μl of a reaction termination solution (TBS-T containing 5 mM EDTA) and washed three times with TBS-T. Each well was then washed with 300 μl of StartingBlock T20 (TBS) Blocking Buffer (PIERCE). After washing, each well was added with 100 μl of HRP-labeled primary antibody (p-Tyr (PY20), sc-508 HRP (SANTA Cruz Biotechnology), an antibody recognizing a phosphorylated tyrosine residue) diluted to 1000-fold with StartingBlock T20 (TBS) Blocking Buffer, and the plate was incubated with gentle shaking at 25° C. for about 1.5 hours. After the incubation, wells were washed for five times with TBS-T. After washing, each well was added with 150 μl of chemiluminescent substrate (SuperSignal ELISA PICO (PIERCE)), and after 5 min., luminescence was measured with a microplate reader GENios (TECAN) to measure RTK activities. […]

MDA-MB-468 tumor = experiment: Tumor mass of MDA-MB-468 tumor in mice; type: in vivo, mice (BALB/c nu/nu); conditions: 30 mg/kg/day injected for 7 days, Days 3, 5, 8 relative to Day 1, FIG. 4
Method: MDA-MB-468 cells were cultured in a medium (DMEM-F12 (Sigma) containing 10% FBS (Hyclone)) until cells become 80% confluent in a 225-cm^2 flask. The obtained cultured cells were suspended in 100 μl of DMEM-F12 at about 1×10^7 cells to obtain a MDA-MB-468 cell suspension.
Fat pad of 10-week-old female mice (BALB/c nu/nu) was injected with 100 μl of the MDA-MB-468 cell suspension. After 14 days, the growth of tumor in mice was confirmed. Thus, tumor was allowed to be formed in three mice.
At 14 days after the injection of the MDA-MB-468 cell suspension, an inhibitor solution was injected to the mouse having tumor. Specifically, AG1478 was dissolved in 100 μl of dimethylsulfoxide (DMSO, Sigma) to obtain a inhibitor solution 1. The mouse was injected with the inhibitor solution 1 so that it received the inhibitor at a dose of 30 mg/kg/day. The inhibitor solution 1 was injected for consecutive 7 days. 4557W was dissolved in DMSO to obtain an inhibitor solution 2. […]
On Day 1, the mice were injected with the inhibitor solutions. On Days 1, 3, 5, and 8, the tumor mass (mm^3) in mice was measured. The tumor mass was calculated from the longitudinal and transverse diameters of the tumor measured, assuming that the shape of the tumor is an oval sphere.
The tumor mass of the mouse injected with DMSO was measured in a similar manner. […]

[2] = system: RTKs in cell membrane fraction BT-474; experiment: RTK activity of cell membrane fraction with or without inhibitor (ELISA, Biotin-poly(Glu, Tyr) substrate); type: biochemical; conditions: treatment solution containing 100 μM inhibitor, 100 μM ATP, FIG. 1
Method: as §1, §2, §3, §4

[3] = system: RTKs in cell membrane fraction MCF7; experiment: as above; type: biochemical; conditions: treatment solution containing 100 μM inhibitor, 100 μM ATP, FIG. 2
Method: as §1, §2, §3, §4

[4] = system: RTKs in cell membrane fraction MDA-MB-231; experiment: as above; type: biochemical; conditions: treatment solution containing 100 μM inhibitor, 100 μM ATP, FIG. 2
Method: as §1, §2, §3, §4

BT-474 cells = experiment: VEGF secretion ability (Human VEGF Quantikine ELISA); type: cell-based; conditions: 1 μM inhibitor, 4 hours, FIG. 6
Method: (§5) The VEGF secretion ability was measured as follows. Cultured cells of MDA-MB-468, BT-474, MCF7 and MDA-MB-231 were seeded in a 6-well plate (Corning) at 1×10^6 cells/well and cultured at 37° C. in a medium (10% FBS). After 24 hours, the medium is changed to a serum free medium and the culture was continued for further 18 hours. The serum free medium used was DMEM/F12 (SIGMA) or RPMI1640 (SIGMA) supplemented with the antibiotics Antibiotic-Antimycotic (100×) (GIBCO). Thereafter, the medium was changed to the medium (10% FBS) containing 1 μM inhibitor in DMSO (PD153035, AG1478, PDGFR inhibitor or VEGFR inhibitor) and the culture was continued for additional 4 hours. The cell supernatant was then collected. The amount of VEGFs in the supernatant was measured with Human VEGF Quantikine ELISA Kit (R&D system) according to the attached protocol.
(§6) The control experiment was carried out with DMSO only instead of the inhibitor.
(§7) In FIG. 6, the y-axis corresponds to VEGF concentration (pg/ml), which reflects the amount of VEGFs secreted from the cells. In FIG. 6, “DMSO”, “PD”, “AG”, “PDGFR” and “VEGFR” represent the results of control, and the cells treated with PD153035, AG1478, PDGFR inhibitor and VEGFR inhibitor, respectively.

MDA-MB-468 cells = experiment: as above; type: cell-based; conditions: 1 μM inhibitor, 4 hours, FIG. 6
Method: as §5, §6, §7

tumor cell line (A-431) = conditions: A-431, highest expression level of HER1; Non-Patent Document 1; cited from earlier work

Compound	RTK activity in the presence of the inhibitor (relative to control RTK activity) [1]	increase in the tumor mass (MDA-MB-468 tumor)	RTK activity in the presence of the inhibitor (relative to control RTK activity) [2]	RTK activity in the presence of the inhibitor (relative to control RTK activity) [3]	RTK activity in the presence of the inhibitor (relative to control RTK activity) [4]	VEGF secretion amount compared to the control value (BT-474 cells)	VEGF secretion amount compared to the control value (MDA-MB-468 cells)	proliferation of the tumor cell line (tumor cell line (A-431))
COc1cc2ncnc(Nc3ccc(OCc4ccccc4)cc3)c2cc1OC [4557W]	decreased	suppressed						
COc1cc2ncnc(Nc3cccc(Cl)c3)c2cc1OC [AG1478]	decreased	suppressed	decreased	not decreased	not decreased	decreased	decreased	
COc1cc2ncnc(Nc3ccc(F)c(Cl)c3)c2cc1OCCCN1CCOCC1 [Iressa, gefitinib]								suppressed at the highest degree
COc1cc2ncnc(Nc3cccc(Br)c3)c2cc1OC [PD153035]	decreased		decreased	not decreased	not decreased	decreased	decreased	

Source: US20110027809A1, “METHOD FOR EVALUATION OF DEGREE OF MALIGNANCY OF TUMOR CELL” (priority 2008, published 2011)
